For one test, the target named is T1, ULK1 kinase (Homo sapiens, UniProt O75385, E37A/K38A).
T1 construct: (residues 1-283; ID NO: 1); purchased Beryllium
T1 sequence (O75385 1-283 E37A/K38A): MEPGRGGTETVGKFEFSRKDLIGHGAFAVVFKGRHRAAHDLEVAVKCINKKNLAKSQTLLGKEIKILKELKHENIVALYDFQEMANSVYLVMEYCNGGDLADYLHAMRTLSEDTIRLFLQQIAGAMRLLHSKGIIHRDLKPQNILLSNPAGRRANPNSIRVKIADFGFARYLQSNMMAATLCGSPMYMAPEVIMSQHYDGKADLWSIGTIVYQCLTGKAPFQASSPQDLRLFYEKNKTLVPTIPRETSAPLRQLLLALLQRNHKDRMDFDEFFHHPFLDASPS
The test is described as follows: Biochemical assay for ULK1 (coupled pyruvate kinase/lactate dehydrogenase assay). Conditions: 1 mM ATP, 0.1 nM ULK1; read-out: ULK1 (inhibition of biochemical activity), IC50. How it is done: Biochemical Assay for ULK1 (SEQ. ID NO: 1)
Activity of ULK1 kinase was determined spectroscopically using a coupled pyruvate kinase/lactate dehydrogenase assay that continuously monitors the ATP hydrolysis-dependent oxidation of NADH (e.g., Schindler et al. Science (2000) 289: 1938-1942). Assays were conducted in 384-well plates (100 μL final volume) using 0.1 nM ULK1 (from Beryllium), 0.075 mM peptide substrate (YANWLAASIYLDGKKK), 1.5 units pyruvate kinase, 2.1 units lactate dehydrogenase, 1 mM phosphoenol pyruvate, 0.28 mM NADH and 1 mM ATP in assay buffer (100 mM Tris, pH 7.5, 15 mM MgCl2, 0.5 mM DTT, 0.004% (w/v) BSA, and 0.004% Triton X-100). Inhibition of ULK1 was measured by adding serial diluted test compound (final assay concentration of 1% DMSO). A decrease in absorption at 340 nm was monitored continuously for 6 h at 30° C. on a multi-mode microplate reader (BioTek). The reaction rate was calculated using the 2-3 h time frame. The reaction rate at each concentration of compound was converted to percent inhibition using controls (i.e., reaction with no test compound and reaction with a known inhibitor) and IC50 values were calculated using software routines in Prism (GraphPad software).

In test [1] the test system is ULK kinase substrate ATG13 (pS318-ATG13) in A549 (KRAS mutant) cells. The experiment in a line: pATG13 levels of mutant KRas A549 cells after treatment with ULK inhibitors in combination with trametinib (ELISA). The format is cell-based, human. The procedure:
Cellular Inhibition of ULK Kinase Substrate ATG13 Protein pATG13 Levels of Mutant KRas A549 Cells after Treatment with ULK Inhibitors in Combination with Trametinib
(§1) A549 (KRAS mutant) human lung cancer cells (6,000 cells/well) were added to a 384-well tissue-culture treated plate in 50 μL of pre-warmed DMEM medium supplemented with 10% characterized fetal bovine serum (Invitrogen, Carlsbad, CA), 100 units/mL penicillin G, and 100 μg/mL streptomycin and allowed to grow overnight at 37° C., 5% CO2, and 95% humidity. The following day, 10 μL of media containing trametinib or DMSO as a control was added to wells. The final concentration of trametinib in wells was 250 nM. A dose response of a test compound (0.6 μL per well) was added. DMSO (0.6 μL) was added to control wells. The plate was briefly shaken to mix wells and then incubated at 37° C. overnight. The next day, the media was aspirated and cells were washed with Dulbecco's Phosphate Buffered Saline (Gibco). Cells were lysed using MPER lysis buffer (Pierce, Rockford, IL) containing Halt Phosphatase and Protease Inhibitors (Pierce, Rockford, IL) and Phosphatase inhibitor cocktail 2 (Sigma, St. Louis, MO) at 4° C. for 10 min with shaking.
(§2) Cellular levels of phospho-Serine 318 ATG13 (pATG13) were measured via an ELISA method. Total ATG13 Antibody (Cell Signaling Cat #13273) was used to coat the wells. The plate was incubated at 4° C. overnight and washed with ELISA wash buffer (Biolegend Cat #421601). The wells were then blocked with assay diluent (Biolegend Cat #421203) for 1 h at rt. Plate wells were washed with ELISA wash buffer. Cell lysate was added to wells and incubated at rt for 2 h. Plate wells were washed with ELISA wash buffer. Biotinylated pS318-ATG13 antibody (Rockland Immunochemicals Cat #600-401-C49) was diluted in assay diluent and added to each well and incubated at rt for 1 h. Plate wells were washed with ELISA wash buffer. Streptavidin linked to horseradish peroxidase (Thermo Fisher Cat #21140) was diluted in assay diluent and added to each well and incubated at rt for 1 h. Plate wells were washed with ELISA wash buffer. High sensitivity TMB substrate (Biolegend Cat #421101) was added to each well and incubated at rt for 20 min. The reaction was stopped with 2N Sulfuric Acid. The plate was analyzed at on a plate reader measuring absorbance at 450 nm and 540 nm (background). Signal was calculated by first subtracting the background absorbance at 540 nm from the absorbance at 450 nm for each well. Next, the background corrected absorbance at 450 nm from blank wells was subtracted from test wells. Data was compared to control wells to determine % ATG13 phosphorylation. GraphPad Prism was used to calculate IC50 values.
In general terms: In an ELISA, binding on a coated surface is turned into a signal by an enzyme label.

Test [2] deals with ULK kinase substrate ATG13 (pS318-ATG13) in MiaPaCa-2 cells. The experiment in a line: pATG13 levels of mutant KRas MiaPaCa-2 cells after treatment with ULK inhibitors in combination with trametinib (ELISA). It is filed as cell-based, human. The procedure: pATG13 Levels of Mutant KRas MiaPaCa-2 Cells after Treatment with ULK Inhibitors in Combination with Trametinib
as §1, with “MiaPaCa-2” for “A549 (KRAS mutant)”, “pancreatic” for “lung”, “(10000” for “(6,000”, “G,” for “G, and”, “streptomycin, and 2.5% Horse Serum” for “streptomycin”, “minutes” for “min”
as §2, with “2.0N sulfuric acid.” for “2N Sulfuric Acid.”

The next test deals with T2, ULK2 kinase (Homo sapiens, UniProt Q8IYT8).
T2 construct: (residues 1-306 with N-terminal GST and His tag; ID NO: 2); purchased Signal Chem U02-11G
The experiment in a line: Biochemical assay for ULK2 (coupled pyruvate kinase/lactate dehydrogenase assay). The conditions noted are these: 1 mM ATP, 1 nM ULK2; read-out: ULK2 (inhibition of biochemical activity), IC50. The procedure: Biochemical Assay for ULK2 (SEQ. ID NO: 2)
Activity of ULK2 kinase was determined spectroscopically using a coupled pyruvate kinase/lactate dehydrogenase assay that continuously monitors the ATP hydrolysis-dependent oxidation of NADH (e.g., Schindler et al. Science (2000) 289: 1938-1942). Assays were conducted in 384-well plates (100 μL final volume) using 1 nM ULK2 (Signal Chem U02-11G), 200 μM ULKtide, 1.5 units pyruvate kinase, 2.1 units lactate dehydrogenase, 1 mM phosphoenol pyruvate, 0.28 mM NADH and 1 mM ATP in assay buffer (100 mM Tris, pH 7.5, 15 mM MgCl2, 0.5 mM DTT, 0.1% octyl-glucoside, 0.002% (w/v) BSA, and 0.002% Triton X-100). Inhibition of ULK2 was measured by adding serial diluted test compound (final assay concentration of 1% DMSO). A decrease in absorption at 340 nm was monitored continuously for 6 h at 30° C. on a multi-mode microplate reader (BioTek). The reaction rate was calculated using the 2-3 h time frame. The reaction rate at each concentration of compound was converted to percent inhibition using controls (i.e., reaction with no test compound and reaction with a known inhibitor) and IC50 values were calculated by fitting a four-parameter sigmoidal curve to the data using Prism (GraphPad software).

T2 sequence (Q8IYT8 with tags, fused parts or gaps): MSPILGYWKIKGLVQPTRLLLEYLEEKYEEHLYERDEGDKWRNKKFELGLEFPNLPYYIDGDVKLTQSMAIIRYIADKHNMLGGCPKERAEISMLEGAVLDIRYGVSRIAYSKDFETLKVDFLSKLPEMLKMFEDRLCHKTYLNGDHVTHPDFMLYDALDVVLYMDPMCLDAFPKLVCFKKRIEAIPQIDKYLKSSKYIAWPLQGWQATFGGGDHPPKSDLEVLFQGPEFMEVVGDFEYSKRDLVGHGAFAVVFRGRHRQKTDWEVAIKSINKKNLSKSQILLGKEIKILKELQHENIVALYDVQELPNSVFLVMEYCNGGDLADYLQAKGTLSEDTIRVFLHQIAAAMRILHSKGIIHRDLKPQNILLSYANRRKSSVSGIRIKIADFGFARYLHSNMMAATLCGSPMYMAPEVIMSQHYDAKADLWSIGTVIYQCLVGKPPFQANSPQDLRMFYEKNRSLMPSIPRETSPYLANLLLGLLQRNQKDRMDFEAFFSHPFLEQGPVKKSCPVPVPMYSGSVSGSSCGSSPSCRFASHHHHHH

`CC/C(Nc1cnn(C2CCN(C(C)C)CC2)c1)=C1/C(=O)Nc2ccc(C(=O)N(C)C)cc21` [Example 2, (Z)-3-(1-((1-(1-isopropylpiperidin-4-yl)-1H-pyrazol-4-yl)amino)propylidene)-N,N-dimethyl-2-oxoindoline-5-carboxamide]: the IC50 – broadly, the midpoint of a concentration-inhibition curve – is 100 to 500 nM at ULK1 kinase, over 600 nM in test [1] and 100 to 300 nM in test [2].

On to `CC/C(Nc1cnn(C(C)C)c1)=C1/C(=O)Nc2ccc(C(=O)C3CC3)cc21` [Example 6, (Z)-5-(cyclopropanecarbonyl)-3-(1-((1-isopropyl-1H-pyrazol-4-yl)amino)propylidene)indolin-2-one], for which the IC50 at ULK1 kinase is 10 to 100 nM; on ULK2 kinase, 100 to 500 nM; in test [1], 100 to 300 nM.

Take `CC/C(Nc1ccc(N2CCN(C)CC2)cc1)=C1/C(=O)Nc2ccc(C(=O)NCCOC)cc21` [Example 11]: the IC50 on ULK1 kinase was 10 to 100 nM; in test [1], 300 to 600 nM; in test [2] it was at most 100 nM.

`CCCNC(=O)c1ccc2c(c1)/C(=C(\CC)Nc1cnn(C3CCN(C(C)C)CC3)c1)C(=O)N2` [Example 15]: the IC50 at ULK1 kinase was at most 10 nM; in test [1], at most 100 nM; in test [2], at most 100 nM.

Turning to `C/C(Nc1cnn(C2CCN(C(C)C)CC2)c1)=C1/C(=O)Nc2ccc(C(=O)NCC(F)(F)F)cc21` [Example 24], the IC50 at ULK1 kinase is at most 10 nM; in test [1], 300 to 600 nM; in test [2], at most 100 nM.

Turning to `CC/C(Nc1cnn(C2CCN(C3CCC3)CC2)c1)=C1/C(=O)Nc2ccc(C(=O)NCC(C)C)cc21` [Example 32], the results for the IC50 (at ULK1 kinase; in test [1]; in test [2]) were at most 10 nM, at most 100 nM and at most 100 nM, respectively.

Regarding `CC/C(Nc1ccc(N2CCN(C)CC2)c(F)c1)=C1/C(=O)Nc2ccc(C(=O)NCC(F)(F)F)cc21` [Example 72], the IC50 at ULK1 kinase is at most 10 nM; at ULK2 kinase, at most 10 nM; in test [2], at most 100 nM.

In the case of `CC/C(Nc1ccc(N2CCN(C)CC2)cc1F)=C1/C(=O)Nc2ccc(C(=O)NCC(F)(F)F)cc21` [Example 73], the IC50 at ULK1 kinase fell in the range of 100 to 500 nM; at ULK2 kinase, 100 to 500 nM; in test [2] it was 100 to 300 nM.

For the compound `CC/C(Nc1cnc(N2CCN(C)CC2)nc1)=C1/C(=O)Nc2ccc(C(=O)NCC(F)(F)F)cc21` [Example 76], the values for the IC50 (at ULK1 kinase; at ULK2 kinase; in test [2]) were 100 to 500 nM, over 500 nM and 100 to 300 nM, respectively.

With `CC/C(Nc1cnn(C(C)C)c1)=C1/C(=O)Nc2ncc(C(=O)NCC3(F)CC3)cc21` [Example 172], the IC50 at ULK1 kinase lay in the range of 10 to 100 nM; at ULK2 kinase, 100 to 500 nM.

On to `CC/C(Nc1cnn(C2CCN(C(C)C)CC2)c1)=C1/C(=O)Nc2ccc(C(=O)NCC3(C)CCCO3)cc21` (stereo not drawn) [Example 174], for which the results for the IC50 (on ULK1 kinase; on ULK2 kinase; in test [1]) were at most 10 nM, 10 to 100 nM and at most 100 nM, respectively.

In the case of `CC/C(Nc1cnn(C(C)C)c1)=C1/C(=O)Nc2ccc(C(=O)N(CC(F)(F)F)C3CC3)cc21` [Example 175], the IC50 on ULK1 kinase was at most 10 nM; at ULK2 kinase, 100 to 500 nM.

`CC/C(Nc1cnn(C(C)C)c1)=C1/C(=O)Nc2ccc(C(=O)CN(C)C)cc21` [Example 176]: the IC50 on ULK1 kinase and on ULK2 kinase was over 500 nM each time.

As for `CC/C(Nc1cnn(C(C)C)c1)=C1/C(=O)Nc2ccc(C(=O)Nc3cnn(CC(F)(F)F)c3)cc21` [Example 178], the IC50 at ULK1 kinase and at ULK2 kinase was over 500 nM in each case.

As for `CC/C(Nc1cncc(C(C)C)c1)=C1/C(=O)Nc2ccc(C(=O)NCC(F)(F)F)cc21` [Example 182], the concentration for half-maximal inhibition (IC50) on ULK1 kinase and at ULK2 kinase was over 500 nM in each case.

On to `CC/C(Nc1cnn(C(C)C)c1)=C1/C(=O)Nc2ccc(C(N)=O)cc21` [Example 183], for which the IC50 at ULK1 kinase and at ULK2 kinase was 10 to 100 nM each time.

These data come from patent publication US20240150368A1, “ULK INHIBITORS AND METHODS OF USE THEREOF” (Deciphera Pharmaceuticals, LLC, priority 2022, published 2024).
